Assay results as given in patent US10919878B2, “MCT4 inhibitors and uses thereof” (CHARLES R. DREW UNIVERSITY OF MEDICINE AND SCIENCE, priority 2018, dated 2021).

Key:
MDA-MB-231 cells = experiment: Viability/cytotoxicity assay (growth inhibition); format: cell-based; details: Homo sapiens, read-out: IC50, inhibition of cell proliferation
Method: Human cell lines MDA-MB-231 cells were obtained from ATCC (Rockville, Md.). These cells were authenticated by Laragen, Inc. (Culver City, Calif.), by short tandem repeat (STR) profiling, monitoring cell morphology and biological behavior, and tested to exclude mycoplasma contamination prior to use.
A viability/cytotoxicity assay was performed by culturing cells in 96-well plates. The following day the cells were treated with ½ serial dilutions of each compound or the solvent (DMSO) alone as a control. The amount of solvent was the same in all the conditions and each condition was tested in duplicate or triplicate. After 5 days incubation, the effect of the compounds on cell proliferation were determined by either MTT (3-(4,5-dimethylthiazol-2-yl)-2,5-diphenyltetrazolium bromide, Sigma-Aldrich, St. Louis, Mo.) or bioluminescence assay (Cell Titer Glo, Promega, Madison, Wis.). After incubation of the cells with MTT (1 mg/ml), the developed color was dissolved in DMSO and read by a plate reader. The bioluminescence assays were performed according to the manufacturer's recommendation. Growth inhibition rates were determined by comparing the read out for each compound dilution versus the control and from the growth inhibition curves from which the IC50 values were calculated. Each assay was performed at least twice.

MDA-MB-231 tumors = experiment: MDA-MB-231 TNBC xenograft tumor model in nude mice; format: in vivo; details: 20 mg/kg intraperitoneally, up to 4 weeks; for tumor growth (size and weight): daily 5 days then 2 days rest
Method: Values represent mean±SD, n=6-8 mice/group.
Values represent mean±SD, n=8 mice/group.
The anti-tumor effects of the MCT4 inhibitors CB-1, CB-2 and/or CB-3 were evaluated in nude mice implanted with human triple negative breast cancer (TNBC) cells (MDA-MB-231). For TNBC xenograft tumor models, MDA-MB-231 (5×10^6) cancer cells were injected subcutaneously into the flanks of female athymic nude mice (nu/nu, 4 weeks old). Two weeks after the injection of cancer cells, xenograft tumors were found in the injection site. Tumor dimensions were measured, and volume was calculated by length (L), width (W), and height (H) using the formula (volume=π/6×L×W×H). After the tumors reached a volume of 50 mm^3, the mice were injected intraperitoneally with 20 mg/kg CB-1, CB-2, CB-3 or with the vehicle solution (DMSO; i.e., Control) for up to 4 weeks. The MCT4 inhibitors were injected daily for 5 days and then mice were rested for 2 days.

MCT4 = target: T1, MCT4 (Homo sapiens, UniProt O15427); experiment: Lactate secretion assay (LACTATE-GLO Assay); format: cell-based; details: MDA-MB-231 cells, compounds 2.5 μM, 48 h
T1 construct: host or cells: MDA-MB-231
T1 sequence (O15427 1-465): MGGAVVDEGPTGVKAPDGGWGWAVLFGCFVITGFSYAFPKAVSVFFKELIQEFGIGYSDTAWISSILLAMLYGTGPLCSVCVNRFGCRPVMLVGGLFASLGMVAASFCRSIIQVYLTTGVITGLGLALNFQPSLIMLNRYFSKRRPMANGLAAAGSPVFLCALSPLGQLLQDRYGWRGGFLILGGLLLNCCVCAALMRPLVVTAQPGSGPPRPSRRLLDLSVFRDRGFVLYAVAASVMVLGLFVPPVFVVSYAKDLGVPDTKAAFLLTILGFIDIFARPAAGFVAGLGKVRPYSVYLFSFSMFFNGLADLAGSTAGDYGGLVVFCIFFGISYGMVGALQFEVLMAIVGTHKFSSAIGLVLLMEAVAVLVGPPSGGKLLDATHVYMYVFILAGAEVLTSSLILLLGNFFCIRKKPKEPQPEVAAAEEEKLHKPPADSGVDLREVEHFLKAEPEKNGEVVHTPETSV
Method: Briefly, MDA-MB-231 cells were incubated with the various compounds (2.5 μM) for 48 h followed by a lactate secretion assay. […] Small compound names are shown on the x-axis. Diclofenac was used as a positive control.
MDA-MB-231 cells were incubated with various candidate compounds (2.5 μM) for 48 hours followed by lactate secretion assay with a LACTATE-GLO™ Assay kit (Promega Corporation, Madison, Wis.) according to the manufacturer's protocol.

Structure (SMILES): O=C(Nc1cc(Cl)ccc1Oc1ccc2ccccc2c1Br)c1cc(Cl)cc(I)c1O [CB-1, N-{2-[(1-bromo-2-naphthyl)oxy]-5-chlorophenyl}-5-chloro-2-hydroxy-3-iodobenzamide]
- IC50 (MDA-MB-231 cells): 35.3 µM
- tumor growth (size and weight) (MDA-MB-231 tumors): significantly inhibited tumor growth
- body weight of the mice (MDA-MB-231 tumors): began to lose weight

Structure (SMILES): O=C(Nc1ccc(Nc2cc(-n3ccnc3)ncn2)cc1)Nc1cc(F)cc(F)c1 [CB-3, N-(3,5-difluorophenyl)-N′-(4-{[6-(1H-imidazol-1-yl)-4-pyrimidinyl]amino}phenyl)urea]
- tumor growth (size and weight) (MDA-MB-231 tumors): strikingly reduced the size and weight
- body weight of the mice (MDA-MB-231 tumors): without affecting body weight
- signs of systemic toxicity (MDA-MB-231 tumors): no detectable signs of systemic toxicity
- lactate secretion inhibition (MCT4): most effective
